The supplement of paper PMC7840683
Counter-ions that a name gives are not always drawn. ± gives the standard deviation of the averaged measurements.

System: HepaRG
Experiment: LDH release cytotoxicity, % of total lysis control; higher = more cytotoxic
Settings: 48 h
Summary of the method: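 Eight-point half-log series of test chemicals, the highest at 100 µM, were given in duplicate for 48 h to single-lot HepaRG cells on collagen I-coated 96-well plates in serum-free induction medium with 0.5% DMSO. A Tecan Safire read resorufin fluorescence from CytoTox-ONE as a measure of LDH in 50 µL spent medium, with 0.1% Triton X in total lysis wells. Percent cytotoxicity was normalized to on-plate vehicle and total lysis controls and averaged over the duplicates.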

SMILES	LDH release cytotoxicity (0.03162 µM)	LDH release cytotoxicity (0.1 µM)	LDH release cytotoxicity (0.3162278 µM)	LDH release cytotoxicity (1 µM)	LDH release cytotoxicity (3.16228 µM)	LDH release cytotoxicity (10 µM)	LDH release cytotoxicity (31.6228 µM)	LDH release cytotoxicity (100 µM)	also measured
O=C1OC(=O)C2C3C=CC(C3)C12 (stereo not given) [2-Norbornene-5,6-dicarboxylic anhydride]	-1.12 ± 0.28%	-0.887 ± 0.62%	-1.06 ± 0.25%	-1.3 ± 0.092%	-0.802 ± 0.41%	-1.42 ± 0.42%	-0.266 ± 0.16%	1.32 ± 0.12%	–
OCCOc1ccccc1 [2-Phenoxyethanol]	-0.138 ± 0.14%	-0.772 ± 0.68%	-1.12 ± 0.39%	-1.13 ± 0.53%	-1.12 ± 0.78%	-1.27 ± 0.29%	-0.22 ± 0.34%	0.632 ± 1.1%	–
Oc1ccccc1-c1ccccc1 [2-Phenylphenol]	–	–	–	–	–	–	–	–	LDH release cytotoxicity (0.0327296 µM): -1.34 ± 0.032%; LDH release cytotoxicity (0.1035 µM): -1.96 ± 0.059%; LDH release cytotoxicity (0.327296 µM): -0.0202 ± 0.57%; LDH release cytotoxicity (1.035 µM): -0.704 ± 0.57%; LDH release cytotoxicity (3.27296 µM): -1.21 ± 0.68%; LDH release cytotoxicity (10.35 µM): 0.0213 ± 0.73%; LDH release cytotoxicity (32.729574 µM): -0.237 ± 0.41%; LDH release cytotoxicity (103.5 µM): 0.858 ± 0.56%
Cc1ccc(C(C)(C)C)c(O)c1 [2-Tert-Butyl-5-methylphenol]	-2.27 ± 0.2%	-3.53 ± 0.25%	-3.17 ± 1.2%	-3.25 ± 0.28%	-3.05 ± 0.58%	-1.24 ± 0.75%	-1.73 ± 0.49%	1.45 ± 1.3%	–
CCOCCOCCOCCO [2-[2-(2-Ethoxyethoxy)ethoxy]ethanol]	-2.06 ± 0.3%	-1.83 ± 0.41%	-2.87 ± 0.13%	-2.53 ± 0.46%	-2.5 ± 0.72%	-1.81 ± 0.26%	-1.33 ± 0.37%	0.397 ± 0.68%	–
CCc1ccc(O)c(C(C)(C)C)c1 [2-tert-Butyl-4-ethylphenol]	-1.09 ± 0.39%	-1.23 ± 0.81%	-1.36 ± 0.88%	-2.09 ± 0.78%	-0.936 ± 0.3%	0.529 ± 0.44%	-0.602 ± 0.34%	0.703 ± 0.44%	–
COc1ccc(O)c(C(C)(C)C)c1 [2-tert-Butyl-4-methoxyphenol]	-1.55 ± 0.4%	-1.18 ± 0.12%	0.0233 ± 0.91%	0.0291 ± 1.1%	0.0384 ± 1.3%	0.94 ± 1.4%	1.15 ± 1.3%	2.22 ± 1.8%	–
CC(C)(C)c1ccccc1O [2-tert-Butylphenol]	-1.05 ± 0.97%	-1.24 ± 0.37%	-1.22 ± 0.3%	-1.31 ± 1.3%	-0.599 ± 0.044%	-0.21 ± 0.92%	-0.521 ± 0.091%	0.121 ± 1%	–
C/C=C/C=C/C(=O)O [2E,4E-Hexadienoic acid]	-0.745 ± 0.091%	-1.89 ± 0.18%	-1.82 ± 0.54%	-1.07 ± 0.45%	-1.03 ± 0.12%	-1.19 ± 0.023%	-0.323 ± 0.42%	0.653 ± 1.2%	–
Cc1cn(C2CC(N=[N+]=[N-])C(CO)O2)c(=O)nc1O (stereo not given) [3'-Azido-3'-deoxythymidine]	-0.42 ± 0.53%	-0.0584 ± 0.55%	-1.1 ± 0.81%	-0.757 ± 0.25%	-0.57 ± 0.61%	-0.541 ± 0.24%	-0.814 ± 0.1%	-0.709 ± 0.47%	–
CC(C)(c1cc(Br)c(O)c(Br)c1)c1cc(Br)c(O)c(Br)c1 [3,3',5,5'-Tetrabromobisphenol A]	-1.12 ± 0.1%	-1.08 ± 0.92%	-0.948 ± 1.4%	-1.1 ± 0.047%	-0.766 ± 0.24%	-0.155 ± 0.087%	0.933 ± 0.068%	3.36 ± 1.1%	–
COc1cc(-c2ccc(N)c(OC)c2)ccc1N [3,3'-Dimethoxybenzidine dihydrochloride]	-1.44 ± 0.28%	-1.17 ± 0.44%	-1.43 ± 0.26%	-2.08 ± 0.059%	-1.15 ± 0.23%	-0.317 ± 0.23%	0.438 ± 1%	3.4 ± 0.6%	–
COc1cc(-c2ccc(N)c(OC)c2)ccc1N [3,3'-Dimethoxybenzidine]	-2.67 ± 0.52%	-2.03 ± 1.2%	-2.61 ± 0.54%	-2.72 ± 1.3%	-1.97 ± 0.08%	-2.38 ± 0.65%	-2.12 ± 0.23%	-0.532 ± 0.63%	–
Cc1cc(-c2ccc(N)c(C)c2)ccc1N [3,3'-Dimethylbenzidine]	-0.774 ± 1.1%	-1.43 ± 0.33%	-1.35 ± 0.3%	-1.27 ± 0.083%	-0.397 ± 0.66%	-0.218 ± 0.26%	2.22 ± 0.32%	5.88 ± 1.2%	–
Cc1ccc(N)c(N)c1 [3,4-Diaminotoluene]	–	–	–	–	–	–	–	–	LDH release cytotoxicity (0.0317809 µM): -0.96 ± 0.44%; LDH release cytotoxicity (0.1005 µM): -0.403 ± 1.1%; LDH release cytotoxicity (0.317809 µM): -1.27 ± 0.55%; LDH release cytotoxicity (1.005 µM): -0.97 ± 1%; LDH release cytotoxicity (3.17809 µM): -0.641 ± 0.42%; LDH release cytotoxicity (10.05 µM): -0.448 ± 0.68%; LDH release cytotoxicity (31.7809 µM): -0.415 ± 1.9%; LDH release cytotoxicity (100.5 µM): 0.704 ± 1.1%
O=[N+]([O-])c1ccc(Cl)c(Cl)c1 [3,4-Dichloronitrobenzene]	-2.51 ± 0.31%	-2.5 ± 0.12%	-2.72 ± 0.62%	-3.32 ± 0.099%	-2.26 ± 0.096%	-2.3 ± 0.049%	-1.86 ± 0.037%	-0.0607 ± 0.49%	–
NC(Cc1cc(I)c(Oc2ccc(O)c(I)c2)c(I)c1)C(=O)O (stereo not given) [3,5,3'-Triiodothyronine]	–	-3.18 ± 1.4%	–	-4.06 ± 0.7%	-3.84 ± 0.24%	-3.581 ± 0.016%	-2.69 ± 1.4%	0.489 ± 0.55%	LDH release cytotoxicity (0.031623 µM): -1.22 ± 1.4%; LDH release cytotoxicity (0.316228 µM): -4.73 ± 0.3%
CC(C)=CCCC(C)=CC=O [3,7-Dimethyl-2,6-octadienal]	-1.99 ± 0.53%	-2.58 ± 0.96%	-1.66 ± 0.9%	-2.25 ± 1.7%	-0.875 ± 0.71%	-0.825 ± 1.8%	-0.501 ± 0.3%	0.215 ± 0.38%	–
OCCCBr [3-Bromo-1-propanol]	0.25 ± 1.2%	-0.845 ± 0.1%	-1.144 ± 0.0048%	-0.314 ± 0.33%	-0.692 ± 0.86%	-0.0559 ± 0.79%	-0.26 ± 0.065%	9.22 ± 1.3%	–
Oc1ccc2c(c1)-c1ccccc1C2 [3-Hydroxyfluorene]	-1.48 ± 0.74%	-1.06 ± 0.48%	-0.414 ± 0.17%	-1.04 ± 0.052%	-0.932 ± 0.52%	-0.0118 ± 0.39%	0.438 ± 0.78%	3.69 ± 1.1%	–
